Test results as given in US20230219963A1, “PYRROLO[2,3-D]PYRIMIDINE DERIVATIVES” (Pfizer Inc., priority 2020, published 2023).

How the values were obtained:
Format in all cases: cell-based
IL-23 induced pSTAT3 = test: IL-23-induced pSTAT3 in human whole blood (lymphocytes); conditions: Lymphocyte, JAK2/TYK2, read-out: IL-23 induced pSTAT3, cellular potency IC50
Procedure: (§1) Human whole blood was collected from healthy donors via vein puncture into Vacutainer collection tubes containing sodium heparin in accordance with Pfizer protocols (Protocol No. GOHW RDP-01) approved by the Shulman Institutional Review Board. Blood was warmed to 37° C. priorto use. Human whole blood was aliquoted (90 μL/well) in 96-well, deep-well, V-bottom plates and treated with compounds (5 μL/well) at different concentrations up to 60 μM (0.2% DMSO final) at 37° C. for 60 minutes. This was followed by a challenge with IFNα (5000 U/mL), IFNγ (100 ng/mL), IL-6 (50 ng/mL), IL-10 (30 ng/mL), IL-12 (30 ng/mL), IL-15 (30 ng/mL), IL-21 (50 ng/mL), IL-23 (25 ng/mL), IL-27 (1000 ng/mL), EPO (2 U/mL), TSLP (50 ng/mL) or PBS and incubated for 15 minutes. Anti-cell surface antibodies were added 15 minutes prior to cytokine stimulation; anti-CD3-BV421 (0.5 μL/well) to IL-6-treated and TSLP-treated samples and anti-CD14-BV421 (0.5 μL/well) to IFNγ-treated samples. Samples were treated with warm 1×Lyse/Fix buffer (700 μL/well) to terminate activation and further incubated at 37° C. for 20 minutes to lyse red blood cells. Plates were centrifuged at 300×g for 5 minutes, supernatant was aspirated, and cells were washed with 800 μL/well of staining buffer (D-PBS containing 0.1% FBS and 0.01% sodium azide). Washed cell pellets were resuspended in 350 μL/well of prechilled 90% methanol and incubated at 4° C. for 30 minutes. After the removal of 90% methanol, cells were washed once with staining buffer. All samples were finally suspended in 150 μL/well of the desired anti-phospho-STAT antibodies at 1:150 dilution in staining buffer; anti-pSTAT1-AF647 in IFNγ treated samples; anti-pSTAT1-AF488 and anti-pSTAT3-AF647 in IL-6-treated samples, anti-pSTAT3-AF647 in IFNα, IL-10, IL-21, IL-23 and IL-27 treated samples, anti-pSTAT4-AF647 in IL-12 treated samples, anti-pSTAT5-AF-647 in EPO, IL-15 and TSLP-treated samples. Human primary keratinocytes were cultured in DermaLife™ medium with supplement kit to expand cell population. Cell passages 2 to 5 were used in the assays. Cells were harvested at ˜80% confluence, suspended in warm DermaLife™ medium, aliquoted (90 μL/well) in 96-well, deep-well, V-bottom plates, and incubated at 37° C. for 30 minutes. Cells were then treated with compounds (0.0003 to 20 μM) for 60 minutes and followed by stimulation with IL-4 (2 ng/mL) or IL-13 (20 ng/mL) at 37° C. for 15 minutes. […]
(§2) After overnight incubation at 4° C., anti-pSTAT stained samples were transferred into 96-well polypropylene U-bottom plates and flow cytometric analysis was performed on a LSR Fortessa™ equipped with a HTS plate loader. […] Background fluorescence was defined using unstimulated cells and a gate was placed at the foot of the peak to include ˜0.5% gated population. […]

IL-10 induced pSTAT3 = test: IL-10-induced pSTAT3 in human whole blood (lymphocytes); conditions: Lymphocyte, JAK1/TYK2, read-out: IL-10 induced pSTAT3, cellular potency IC50
Procedure: as §1, §2

EPO induced pSTAT5 = test: EPO-induced pSTAT5 in human whole blood (all events); conditions: JAK2/JAK2, read-out: EPO induced pSTAT5, cellular potency IC50
Procedure: as §1, §2

IL-15 induced pSTAT5 = test: IL-15-induced pSTAT5 in human whole blood (lymphocytes); conditions: Lymphocyte, JAK1/JAK3, read-out: IL-15 induced pSTAT5, cellular potency IC50
Procedure: as §1, §2

TSLP induced pSTAT5 = test: TSLP-induced pSTAT5 in human whole blood (CD3+ cells); conditions: JAK1/JAK2, read-out: TSLP induced pSTAT5, cellular potency IC50
Procedure: (§3) Human whole blood was collected from healthy donors via vein puncture into Vacutainer collection tubes containing sodium heparin in accordance with Pfizer protocols (Protocol No. GOHW RDP-01) approved by the Shulman Institutional Review Board. Blood was warmed to 37° C. priorto use. Human whole blood was aliquoted (90 μL/well) in 96-well, deep-well, V-bottom plates and treated with compounds (5 μL/well) at different concentrations up to 60 μM (0.2% DMSO final) at 37° C. for 60 minutes. This was followed by a challenge with IFNα (5000 U/mL), IFNγ (100 ng/mL), IL-6 (50 ng/mL), IL-10 (30 ng/mL), IL-12 (30 ng/mL), IL-15 (30 ng/mL), IL-21 (50 ng/mL), IL-23 (25 ng/mL), IL-27 (1000 ng/mL), EPO (2 U/mL), TSLP (50 ng/mL) or PBS and incubated for 15 minutes. Anti-cell surface antibodies were added 15 minutes prior to cytokine stimulation; anti-CD3-BV421 (0.5 μL/well) to IL-6-treated and TSLP-treated samples and anti-CD14-BV421 (0.5 μL/well) to IFNγ-treated samples. Samples were treated with warm 1×Lyse/Fix buffer (700 μL/well) to terminate activation and further incubated at 37° C. for 20 minutes to lyse red blood cells. Plates were centrifuged at 300×g for 5 minutes, supernatant was aspirated, and cells were washed with 800 μL/well of staining buffer (D-PBS containing 0.1% FBS and 0.01% sodium azide). Washed cell pellets were resuspended in 350 μL/well of prechilled 90% methanol and incubated at 4° C. for 30 minutes. After the removal of 90% methanol, cells were washed once with staining buffer. […]
as §2

IL-13 induced pSTAT6 = test: IL-13-induced pSTAT6 in human keratinocytes; conditions: Keratinocyte, JAK1/JAK2, read-out: IL-13 induced pSTAT6, cellular potency IC50
Procedure: as §3, §2

IL-4 induced pSTAT6 = test: IL-4-induced pSTAT6 in human keratinocytes; conditions: Keratinocyte, JAK1/JAK2, read-out: IL-4 induced pSTAT6, cellular potency IC50
Procedure: as §3, §2

IL-6 induced pSTATI = test: IL-6-induced pSTAT1 in human whole blood (CD3+ cells); conditions: JAK1/JAK2, read-out: IL-6 induced pSTATI, cellular potency IC50
Procedure: as §1, §2

IL-31 induced pSTAT3 = test: IL-31-induced pSTAT3 in IFNγ-primed THP-1 cells; conditions: Homo sapiens, JAK1/JAK2, read-out: IL-31 induced pSTAT3, cellular potency IC50
Procedure: THP-1 cells were maintained in RPMI 1640 medium containing 10% FBS, 50 μM 2 mercaptoethanol, 50 U/mL penicillin, 50 µg/mL streptomycin and 2 mM L-glutamine. THP 1 cells were treated with IFNγ (20 ng/mL) for 18 hours. IFNγ primed THP-1 cells were resuspended in fresh RPMI 1640 medium, treated with compounds (0.0003 to 20 μM) for 60 minutes, followed by stimulation with IL-31 (1 μg/mL) for additional 10 minutes. Cells were then fixed by 2% paraformaldehyde and permeabilized by 90% methanol. Fixed and permeabilized cells were stained with AlexaFluor647™ labeled anti-pSTAT3 antibody (1 to 150 dilution).
After overnight incubation at 4° C., anti-pSTAT stained samples were transferred into 96-well polypropylene U-bottom plates and flow cytometric analysis was performed on a LSR Fortessa™ equipped with a HTS plate loader. For human whole blood samples, lymphocyte population was gated for pSTAT histogram analysis for IFNα, IL-10, IL-12, IL-15, IL-21, IL-23, and IL-27-treated samples; CD14^+ cells for IFNγ-treated samples; CD3^+ cells for IL-6 and TSLP-treated samples; all events (entire populations) for EPO-treated samples. Entire populations of keratinocytes and THP-1 cells were gated for the IL-4, IL-13, IL-22 and IL-31 assays. Background fluorescence was defined using unstimulated cells and a gate was placed at the foot of the peak to include ˜0.5% gated population. Histogram statistical analysis was performed using FACSDiva version 8.0. Relative fluorescence unit, which measures the level of pSTAT, was calculated by multiplying the percent positive population and its mean fluorescence. Inhibition curves and half maximal inhibitory concentration (IC50) values were determined using Prism™ software (Version 8) or the Activity Base data analysis software (ID Business Solutions).

IL-22 induced pSTAT3 = test: IL-22-induced pSTAT3 in human keratinocytes; conditions: Keratinocyte, JAK1/TYK2, read-out: IL-22 induced pSTAT3, cellular potency IC50
IL-27 induced pSTAT3 = test: IL-27-induced pSTAT3 in human whole blood (lymphocytes); conditions: Lymphocyte, JAK1/JAK2, read-out: IL-27 induced pSTAT3, cellular potency IC50
Procedure: as §1, §2

IFNg induced pSTATI = test: IFNγ-induced pSTAT1 in human whole blood (CD14+ cells); conditions: JAK1/JAK2, read-out: IFNg induced pSTATI, cellular potency IC50
Procedure: as §1, §2

IL-21 induced pSTAT3 = test: IL-21-induced pSTAT3 in human whole blood (lymphocytes); conditions: Lymphocyte, JAK1/JAK3, read-out: IL-21 induced pSTAT3, cellular potency IC50
Procedure: as §1, §2

IC50 (IL-23 induced pSTAT3): > 16500 nM
IC50 (IL-10 induced pSTAT3): 3700 nM
IC50 (EPO induced pSTAT5): 7180 nM
IC50 (IL-15 induced pSTAT5): 537 nM
IC50 (TSLP induced pSTAT5): 1020 nM
IC50 (IL-13 induced pSTAT6): 81.9 nM
IC50 (IL-4 induced pSTAT6): 77 nM
IC50 (IL-6 induced pSTATI): 343 nM
IC50 (IL-31 induced pSTAT3): 40 nM
IC50 (IL-22 induced pSTAT3): 420 nM
IC50 (IL-27 induced pSTAT3): 228 nM
IC50 (IFNg induced pSTATI): 1690 nM
IC50 (IL-21 induced pSTAT3): 516 nM
Compound: CCCS(=O)(=O)N[C@H]1C[C@@H](N(C)c2ncnc3[nH]ccc23)C1 [Abrocitinib, N-((1S,3S)-3-(Methyl(7H-pyrrolo[2,3-d]pyrimidin-4-yl)amino)cyclo-butyl)propane-1-sulfonamide, reference compound]
